Results published in patent US20200326355A1, “Methods and Systems to Measure Cannabidiol (CBD)” (Laboratory Corporation of America Holdings, priority 2019, published 2020).

Test: LC-MS/MS measurement of hydrolyzed cannabinoid metabolites in urine of donors known to be CBD users
Conditions: urine of seven known CBD users abstaining from marijuana

Row | Compound | carboxy-THC level in donated samples (13 of 16 samples detectible, all but one below the bound) | Parent THC detection in donated samples (16 samples)
1 | CCCCCc1cc(O)c2c(c1)OC(C)(C)[C@@H]1CCC(C(=O)O)=C[C@@H]21 [COO-THC, 11-carboxy Δ9-THC] | less than 15 ng/mL | 
2 | CCCCCc1cc(O)c2c(c1)OC(C)(C)[C@@H]1CCC(C)=C[C@@H]21 [THC, Tetrahydrocannabinol] |  | not detected
